Reference: patent US7056685B1, “Receptor ligands and methods of modulating receptors” (Amgen Inc., priority 2002, dated 2006)
“Also recorded” adds a separate entry of the source. Each block holds one compound with its values, some of them ahead of it.

Tests used:
TGR164 [1] = target: T1, TGR164 (Homo sapiens, UniProt Q96P68); assay: Aequorin assay, TGR164; type: cell-based; details: for activation of TGR164 in Aequorin assay: FIGS. 7A and 7B
T1 construct: expressed in transfected cells; also 'various cell lines'

TGR164 [2] = target: T1, TGR164; assay: Inositol phosphate accumulation assay, TGR164; type: cell-based
TGR18 [3] = target: T2, TGR18 (Homo sapiens, UniProt Q9BXA5); assay: FLIPR intracellular calcium assay, 293 cells stably expressing TGR18; type: cell-based; design: expressed in transfected cells; transient for CRE-luciferase; details: for activation of TGR18 in FLIPR assay: FIG. 6C
T2 sequence (Q9BXA5 with tags, fused parts or gaps limits assumed): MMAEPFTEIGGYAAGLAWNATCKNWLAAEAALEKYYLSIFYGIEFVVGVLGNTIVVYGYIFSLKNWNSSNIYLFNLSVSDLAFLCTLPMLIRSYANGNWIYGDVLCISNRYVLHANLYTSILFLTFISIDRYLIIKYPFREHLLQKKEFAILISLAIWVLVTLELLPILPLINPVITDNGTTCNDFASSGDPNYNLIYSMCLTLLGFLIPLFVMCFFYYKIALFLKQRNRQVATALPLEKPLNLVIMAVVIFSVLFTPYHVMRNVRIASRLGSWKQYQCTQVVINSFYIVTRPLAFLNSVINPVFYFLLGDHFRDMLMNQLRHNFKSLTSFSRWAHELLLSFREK
Experimental: Mobilization of intracellular calcium in response to various ligands was also evaluated using a FLIPR assay. In this assay, 293 cells stably expressing TGR18 were seeded into 384-well plates and incubated at 37° C. overnight. The growth medium was then aspirated and replaced with 50 μl loading medium (FLIPR no-wash kit, Molecular Devices) and incubated at 37° C. for 1 hour. The cells were placed in a fluorometric imaging plate reader (FLIPR), and changes in cellular fluorescence were recorded after the addition of 25 μl of various ligands diluted in FLIPR buffer (FLIPR no-wash kit, Molecular Devices). Analogs of succinic acid that activated TGR18 include succinic acid, maleic acid, oxalacetic acid, methylmalonic acid and itaconic acid (FIG. 6C).

TGR2 [4] = target: T3, TGR2 (Homo sapiens, UniProt Q8TDS7); assay: Aequorin assay, CHO cells transiently transfected with TGR2; type: cell-based; design: expressed in transfected cells; host or cells: CHO cells, transient
mMrgD = mMrgD (Mus musculus, UniProt Q91ZB8)
TGR2 [5] = target: T3, TGR2
40 other orphan GPCRs = details: at 10 μM
GPR43 = target: T4, GPR43 (Homo sapiens, UniProt O15552); assay: GPR43 activation by fatty acids (FIG. 2); type: cell-based; details: for concentration at which GPR43 is activated: FIG. 2
T4 sequence (O15552 1-330): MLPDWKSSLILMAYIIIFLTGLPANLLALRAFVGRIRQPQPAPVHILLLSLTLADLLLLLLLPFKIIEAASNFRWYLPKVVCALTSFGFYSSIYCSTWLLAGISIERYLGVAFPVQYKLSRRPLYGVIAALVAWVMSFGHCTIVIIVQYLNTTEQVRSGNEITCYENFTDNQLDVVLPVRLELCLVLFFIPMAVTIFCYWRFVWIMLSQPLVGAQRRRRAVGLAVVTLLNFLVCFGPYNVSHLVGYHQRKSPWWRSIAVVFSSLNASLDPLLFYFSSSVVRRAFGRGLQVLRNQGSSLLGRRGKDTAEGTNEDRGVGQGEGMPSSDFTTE
Excerpt: An activated or inhibited G-protein will in turn alter the properties of downstream effectors such as proteins, enzymes, and channels. The classic examples are the activation of cGMP phosphodiesterase by transducin in the visual system, adenylate cyclase by the stimulatory G-protein, phospholipase C by Gq and other cognate G proteins, and modulation of diverse channels by Gi and other G proteins. Downstream consequences such as generation of diacyl glycerol and IP3 by phospholipase C, and in turn, for calcium mobilization e.g., by IP3 (further discussed below) can also be examined. Thus, modulators can be evaluated for the ability to stimulate or inhibit ligand-mediated downstream effects. […] Candidate modulators may be assessed for the ability to inhibit inositol phosphate accumulation and/or calcium mobilization induced by the natural ligand, e.g., β-alanine (TGR2), a 2–3 carbon chain fatty acid (GPR43), a medium or long chain fatty acid (GPR40), succinic acid (TGR18), or a-ketoglutaric acid (TGR164).
A battery of fatty acids were tested for the ability to activate GPR43.

TGR18 [6] = target: T2, TGR18; assay: Inositol phosphate accumulation assay, 293 cells stably expressing TGR18; type: cell-based; design: expressed in transfected cells; transient for CRE-luciferase; details: 45 minutes stimulation
Experimental: The ability of various ligands to increase inositol phosphate was also assessed. For this analysis, 293 cells stably expression TGR18 were incubated in inositol-free DMEM/10% dialyzed FCS/1 μCi/ml ^3H-inositol for 16 hours. Following incubation 10 mM LiCi was added to the cells for 15 minutes. Cells were then stimulated with various ligands for 45 minutes and extracted with ice-cold 20 mM formic acid. H3-inositol phosphate was collected on Dowex ion-exchange column (formate form) and radioactivity recorded by Topcount scintillation counter.

TGR18 [7] = target: T2, TGR18; details: 293 cells; 6 hours
Experimental: The ability of a ligand to induce TGR18-mediated activation of a CRE-luciferase reporter was also evaluated. For this assay, 293 cells were transiently transfected with CRE-luciferase reporter, tk-renila luciferase reporter and TGR18 plasmid. Succinic acid was then added to the cell culture supernatants and incubated for a further 6 hours. The luminescence were recorded on CLIPR after cell lysis as illustrated in Dual-luciferase assay kit (Promega).

thirty other GPCRs = details: at 100 μM
Experimental: (§1) In order to examine the ability of a compound to activate TGR18, CHO cells were transiently transfected with 10 μg of the GPCR and 10 μg Aequorin reporter gene in a 150 mm dish. As a negative control, the same amount of empty vector and the Aequorin reporter were cotransfected into CHO cells. After 24 hours, cells were harvested and resuspended in Aequorin buffer (Hank's buffered saline with 20 mM Hepes, pH7.6 and 0.1% BSA) containing 1 μg/ml coelenterazine f and incubated at room temperature for a further 2 hours. The Aequorin luminescence was recorded on Microlumat after injecting 100 μl of cells into 100 μl of ligand prepared in Aequorin buffer.

Human TGR18 = Human TGR18 (Homo sapiens, UniProt Q9BXA5); details: FIG. 6A
Experimental: as §1

rat TGR18 = rat TGR18 (Rattus norvegicus, UniProt Q6IYF9); details: FIG. 6A
Experimental: as §1

mouse TGR18 = mouse TGR18 (Mus musculus, UniProt Q99MT6); details: FIG. 6A
Experimental: as §1

GPR77 = target: T5, GPR77 (Homo sapiens, UniProt Q9P296); assay: Competitive binding assay, membrane binding format, cells transiently transfected with GPR77
T5 construct: expressed in transfected cells
Excerpt: GPR77 was transiently transfected into cells.

TGR18 [8] = target: T2, TGR18; assay: TGR18 ligand activity, assay not specified (introduction); type: cell-based; design: expressed in transfected cells; transient for CRE-luciferase

T3 sequence (Q8TDS7 whole entry): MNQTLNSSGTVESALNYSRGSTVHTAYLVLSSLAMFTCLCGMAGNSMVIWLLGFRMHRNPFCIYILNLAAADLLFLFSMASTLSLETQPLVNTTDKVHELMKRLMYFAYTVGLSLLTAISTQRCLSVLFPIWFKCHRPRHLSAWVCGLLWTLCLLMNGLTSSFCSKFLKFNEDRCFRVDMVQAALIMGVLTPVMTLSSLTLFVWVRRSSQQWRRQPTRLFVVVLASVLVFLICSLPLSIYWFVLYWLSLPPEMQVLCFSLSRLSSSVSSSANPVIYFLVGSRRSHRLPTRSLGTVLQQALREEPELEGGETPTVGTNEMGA
T5 sequence (Q9P296 whole entry): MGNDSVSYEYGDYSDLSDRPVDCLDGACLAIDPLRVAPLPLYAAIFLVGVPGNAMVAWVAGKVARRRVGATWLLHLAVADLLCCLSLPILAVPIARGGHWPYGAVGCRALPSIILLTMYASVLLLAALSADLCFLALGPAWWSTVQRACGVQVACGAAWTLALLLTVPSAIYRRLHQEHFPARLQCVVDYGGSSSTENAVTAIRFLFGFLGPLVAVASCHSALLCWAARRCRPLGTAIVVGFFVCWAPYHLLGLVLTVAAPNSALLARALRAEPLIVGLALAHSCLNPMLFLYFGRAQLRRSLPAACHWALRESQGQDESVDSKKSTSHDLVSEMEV
mMrgD, sequence (Q91ZB8 whole entry): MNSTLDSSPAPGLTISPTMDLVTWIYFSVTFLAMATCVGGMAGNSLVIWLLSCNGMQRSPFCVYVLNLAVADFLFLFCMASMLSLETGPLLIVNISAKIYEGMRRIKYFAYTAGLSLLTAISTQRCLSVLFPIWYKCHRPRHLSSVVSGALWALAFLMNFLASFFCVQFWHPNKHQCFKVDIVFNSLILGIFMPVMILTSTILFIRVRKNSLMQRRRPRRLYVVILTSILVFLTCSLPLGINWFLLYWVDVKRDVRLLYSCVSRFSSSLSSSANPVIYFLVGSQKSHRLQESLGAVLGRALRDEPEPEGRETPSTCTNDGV
rat TGR18, sequence (Q6IYF9 whole entry): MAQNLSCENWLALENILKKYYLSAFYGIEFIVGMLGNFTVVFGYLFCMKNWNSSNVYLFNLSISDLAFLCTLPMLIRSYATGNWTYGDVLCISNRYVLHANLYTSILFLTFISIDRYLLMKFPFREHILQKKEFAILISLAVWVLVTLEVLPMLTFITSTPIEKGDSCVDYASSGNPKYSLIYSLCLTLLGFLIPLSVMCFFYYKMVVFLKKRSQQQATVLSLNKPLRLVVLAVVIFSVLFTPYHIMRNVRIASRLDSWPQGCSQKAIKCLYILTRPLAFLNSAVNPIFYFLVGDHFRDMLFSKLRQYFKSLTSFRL
mouse TGR18, sequence (Q99MT6 whole entry): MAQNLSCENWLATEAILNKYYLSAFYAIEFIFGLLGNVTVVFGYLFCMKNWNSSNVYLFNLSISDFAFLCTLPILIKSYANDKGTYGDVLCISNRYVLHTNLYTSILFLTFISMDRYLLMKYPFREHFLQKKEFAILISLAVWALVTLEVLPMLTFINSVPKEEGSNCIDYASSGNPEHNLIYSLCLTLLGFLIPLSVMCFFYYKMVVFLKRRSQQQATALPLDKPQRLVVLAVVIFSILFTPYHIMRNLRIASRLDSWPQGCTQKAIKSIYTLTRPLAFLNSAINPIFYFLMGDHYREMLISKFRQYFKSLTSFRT

activation of TGR164 in Aequorin assay (TGR164 [1]): TGR164 ligand
activation of TGR164 in Aequorin assays in multiple cell lines (TGR164 [1]; multiple cell lines): activates
inositol phosphate accumulation, TGR164 (TGR164 [2]): observed
Compound: O=C(O)CCC(=O)C(=O)O [α-ketoglutaric acid]

Compound: C=C(CC(=O)O)C(=O)O [itaconic acid]
activation of TGR18 in FLIPR assay (TGR18 [3]): activated
activation of TGR164 in Aequorin assay (TGR164 [1]): activated
inositol phosphate accumulation, TGR164 (TGR164 [2]): observed

activation of TGR18 in FLIPR assay (TGR18 [3]): activated
Compound: O=C(O)/C=C\C(=O)O [maleic acid]

EC50 (TGR2 [4]; CHO cells transiently transfected with TGR2, FIG. 1): 9.1 µM
activation of TGR2 (increase in intracellular calcium), library screen (TGR2 [4]; at 10 μM): positive hit
activation of mouse ortholog mMrgD in Aequorin assay (mMrgD): specifically activated
activation of TGR2 in inositol phosphate accumulation assay (TGR2 [5]): activated
Compound: NCCC(=O)O [β-alanine]
activation of 40 other orphan GPCRs (40 other orphan GPCRs): did not activate

Compound: CCCCCCCC(=O)O [octanoate]
activation of GPR43 (GPR43): do not activate

Compound: CC(C(=O)O)C(=O)O [methylmalonic acid]
activation of TGR18 in FLIPR assay (TGR18 [3]): activated

activation of GPR43 (GPR43): do not activate
Compound: CCCCCCC(=O)O [heptanoeate]

activation of TGR18 in FLIPR assay (TGR18 [3]): activated
Compound: O=C(O)CC(=O)C(=O)O [oxalacetic acid]

increase of inositol phosphate levels, TGR18 (TGR18 [6]): did not
Compound: O=C(O)/C=C/C(=O)O [fumaric acid]

increase of inositol phosphate levels, TGR18 (TGR18 [6]): increased inositol phosphate levels
EC50 (TGR18 [3]; 293 cells stably expressing TGR18, FIG. 6B, read-out: EC50 of TGR18 activation in FLIPR assay): ~27 µM
activation of TGR18 in FLIPR assay (TGR18 [3]): activated
TGR18-mediated activation of CRE-luciferase reporter (TGR18 [7]): induced
activation of human TGR18 in Aequorin assay (Human TGR18): activated
activation of rat TGR18 in Aequorin assay (rat TGR18): activated
activation of mouse TGR18 in Aequorin assay (mouse TGR18): activated
Compound: O=C(O)CCC(=O)O [succinic acid]
activation of thirty other GPCRs (thirty other GPCRs): does not activate

Compound: CCCCC(=O)O [pentanoate]
activation of GPR43 (GPR43): do not activate

Compound: ASP: Acylation stimulating protein, identical to the desarginated form of complement C3a, i.e., C3adesArg
binding to GPR77, competition with C5a and C3a (GPR77): shown to bind to GPR77; also recorded: competed with C5a and C3a

Compound: CC(=O)O [acetate]
concentration at which GPR43 is activated (GPR43): about 140 μM

ligand for / activation of TGR18 (TGR18 [8]): ligands for TGR18
Compound: O=C1CCC(=O)O1 [succinic anhydride]

concentration at which GPR43 is activated (GPR43): about 140 μM
Compound: CCC(=O)O [propionate]
